Drawing on ChEMBL document CHEMBL1158022, “Norpregnane glycosides from a Thai soft coral, Scleronephthya pallida” (J Nat Prod, 1999), this text covers EC50 for two molecules.

Converted amounts (≈) assume the structure as drawn.

The test system of one assay is Plasmodium falciparum. In words: Antimalarial activity against multidrug-resistant Plasmodium falciparum K1 by [3H]hypoxanthine uptake. The class given is functional, organism-based.
The nature of assay [1]: Cytotoxicity against BCA1 cells by SRB assay. The class given is functional. The conditions noted are these: read-out: ED50 (the source's name). A general note: Sulforhodamine B stains cellular protein and so reports cell mass.

Turning to `C=C[C@H]1CC[C@H]2[C@@H]3CCc4cc(O[C@H]5O[C@H](C)[C@H](O)[C@H](O)[C@H]5O)ccc4[C@H]3CC[C@]12C`, the EC50 in the assay on Plasmodium falciparum (Plasmodium falciparum, K1, read-out: EC50) came out at 1.5 µg/mL (≈ 3.5 µM); in assay [1], 10 µg/mL (≈ 23.3 µM).

Regarding `CCN(CC)CCCC(C)Nc1ccnc2cc(Cl)ccc12.O=P(O)(O)O.O=P(O)(O)O` (stereo not drawn) [CHLOROQUINE PHOSPHATE], the EC50 in the assay on Plasmodium falciparum is listed as 1.6 ×10⁻⁷ g/ml.
